Data as given in PubChem BioAssay AID2060491 (Molecular Pharmacology Branch, DTP, NCI, 2025).
“And” between values parts separate entries of the source, which are not always exact repeats. Equal entries are not always repeated.

Test system: 857933-349-R-J2-PDC complex spheroids, viability
Experiment: Anticancer human tumor 857933-349-R-J2-PDC patient-derived colon adenocarcinoma cell line growth inhibition [GQUAD]
Conditions: for viability, T/C: stronger effect = lower value
Text: DNA G-quadruplex Stabilizer Agents in Combinations in Complex Spheroids
A high-throughput screen of multi-cell type tumor spheroids was designed to identify active combinations of DNA G-quadruplex stabilizer agents and targeted small molecules. Complex spheroids include a stromal component modeled by human endothelial cells (HUVEC) and fibroblasts modeled by human mesenchymal stem cells (MSCs). The concentration ranges selected for each drug and investigational agent were based upon clinically achievable concentrations if the clinical Cmax of the agent was known.
Compounds. The drugs and investigational agents: pidnarulex (CX-5461; NSC782164), APTO-253 (NSC789042), BRACO-19 (NSC847499), peposertib (NSC802822), ceralasertib (NSC780249), elimusertib (NSC800525), camonsertib (NSC841442), AZD-1390 (NSC803789), olaparib (NSC753686), talazoparib (NSC767125), ART-558 (NSC835418), sotorasib (NSC818433), MRTX-1133 (NSC836407), SN-38 (NSC673596), topotecan (NSC609699), etoposide (NSC141540), doxorubicin (NSC123127), gemcitabine (NSC613327), 5-fluorouracil (NSC19893), paclitaxel (NSC125973), vemurafenib (NSC761431), panobinostat (NSC761190), R-306465 (JNJ-16241199; NSC773264), adavosertib (NSC754352), TP-3654 (NSC805149), carboplatin (NSC241240), KSQ-4279 (NSC840948), and staurosporine (NSC755774) were obtained from the National Cancer Institute (NCI) Developmental Therapeutics Program Chemical Repository (34). The FDA-approved anticancer drug set is available from the NCI Developmental Therapeutics Program. […] The stock solutions were prepared in dimethyl sulfoxide (DMSO, Sigma-Aldrich, St. Louis, MO, cat. D2650) at 800-fold the tested concentration and stored at -70 degrees C prior to their use. All drugs and investigational agents were tested over a range starting from a high concentration at or near the clinical Cmax and decreasing in half-log increments. If the clinical Cmax for an agent had not been determined, the highest concentration tested was 10 microM.
2.3 Cell Culture. All cells were maintained in an incubator at 37 degrees C and 5% CO2 with 95% humidity. The PDC lines were cultured according to standard operating procedures established by the NCI PDMR. All PDCs were thawed and cultured in Matrigel-coated flasks prepared with a working solution of 1X Ham's F-12 nutrient mix, without supplementation (Invitrogen, cat. 11765054), 100 U/mL penicillin-streptomycin (Invitrogen, cat. 15140122), and 2.5% Matrigel (Corning Inc., cat. 354248) for the first three passages. The 857933-349-R-J2-PDC line was cultured in 6C/Colon 1B media, which includes advanced DMEM/F-12 (Thermo Fisher Scientific, cat. 12634028), 10 mM HEPES (Thermo Fisher Scientific, cat. 15630080), 1X GlutaMAX supplement (Thermo Fisher Scientific, cat. 35050061), 0.1 mg/mL primocin (InvivoGen, cat. ant-pm-2), 10% defined fetal bovine serum, heat inactivated (HyClone Laboratories Inc., cat. SH30070.03HI), 50% L-WRN conditioned media (ATCC, cat. CRL-3276), 1.25 mM N-Acetyl-L-cysteine (Sigma-Aldrich, cat. A9165), 10 mM nicotinamide (Sigma-Aldrich, cat. N0636), 1X B-27 supplement (Thermo Fisher Scientific, cat. 17504044), 1X N-2 supplement (Thermo Fisher Scientific, cat. 17502048), 10 microM Y-27632 dihydrochloride (Tocris Bioscience, cat. 1254), and 50 ng/mL human EGF recombinant protein (Thermo Fisher Scientific, cat. PHG0311). The 485176-168-R4-J1-PDC line was cultured in Panc media, which includes all 6C/Colon 1B media components plus 100 ng/mL human FGF-10 (Thermo Fisher Scientific, cat. 100-26), 500 nM SB-431542 (Selleckchem, cat. S1067), and gastrin (Tocris, cat. 3006).
[…]

[1] = curve of first compound, second compound 0.0316 µM
[2] = curve of first compound, second compound 0.1 µM
[3] = curve of first compound, second compound 0.316 µM
[4] = curve of first compound, second compound 1 µM
[5] = curve of first compound, second compound 3.16 µM
[6] = curve of first compound, second compound 10 µM
[7] = second compound 0.0316 µM, first compound 0.0316 µM
[8] = second compound 0.0316 µM, first compound 0.1 µM
[9] = second compound 0.0316 µM, first compound 0.316 µM
[10] = second compound 0.0316 µM, first compound 1 µM
[11] = second compound 0.0316 µM, first compound 3.16 µM
[12] = second compound 0.0316 µM, first compound 10 µM
[13] = second compound 0.1 µM, first compound 0.0316 µM
[14] = second compound 0.1 µM, first compound 0.1 µM
[15] = second compound 0.1 µM, first compound 0.316 µM
[16] = second compound 0.1 µM, first compound 1 µM
[17] = second compound 0.1 µM, first compound 3.16 µM
[18] = second compound 0.1 µM, first compound 10 µM
[19] = second compound 0.316 µM, first compound 0.0316 µM
[20] = second compound 0.316 µM, first compound 0.1 µM
[21] = second compound 0.316 µM, first compound 0.316 µM
[22] = second compound 0.316 µM, first compound 1 µM
[23] = second compound 0.316 µM, first compound 3.16 µM
[24] = second compound 0.316 µM, first compound 10 µM
[25] = second compound 1 µM, first compound 0.0316 µM
[26] = second compound 1 µM, first compound 0.1 µM
[27] = second compound 1 µM, first compound 0.316 µM
[28] = second compound 1 µM, first compound 1 µM
[29] = second compound 1 µM, first compound 3.16 µM
[30] = second compound 1 µM, first compound 10 µM
[31] = second compound 3.16 µM, first compound 0.0316 µM
[32] = second compound 3.16 µM, first compound 0.1 µM
[33] = second compound 3.16 µM, first compound 0.316 µM
[34] = second compound 3.16 µM, first compound 1 µM
[35] = second compound 3.16 µM, first compound 3.16 µM
[36] = second compound 3.16 µM, first compound 10 µM
[37] = second compound 10 µM, first compound 0.0316 µM
[38] = second compound 10 µM, first compound 0.1 µM
[39] = second compound 10 µM, first compound 0.316 µM
[40] = second compound 10 µM, first compound 1 µM
[41] = second compound 10 µM, first compound 3.16 µM
[42] = second compound 10 µM, first compound 10 µM
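Note: spheroids exposed to compounds for one week before readout.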
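Throughout, for viability, T/C: percent viability relative to vehicle DMSO wells taken as 100%.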

`Nc1ccn(C2OC(CO)C(O)C2(F)F)c(=O)n1` (stereo unspecified) was tested, and the viability, T/C (compound 0.0316 µM) was 75.3% and 98.5% and 97.2%, the viability, T/C (compound 0.1 µM) was 43.2% and 80.9% and 48.4% and the viability, T/C (compound 0.316 µM) was 45.5% and 58.7% and 54.6%. The viability, T/C (compound 1 µM) was 12.3% and 22.7% and 10.3%, the viability, T/C (compound 3.16 µM) was 8.31% and 14.9% and 6.52% and the viability, T/C (compound 10 µM) was 6.59% and 14.8% and 5.26%. For the same compound, the IC50 (curve of compound) was 105 nM and 386 nM and 161 nM.

`COc1ccc([C@@H](O)c2cc(-c3ncnc4cc(N5CCOCC5)ccc34)c(F)cc2Cl)nn1` + CN(C)c1ccc(Nc2c3ccc(NC(=O)CCN4CCCC4)cc3nc3cc(NC(=O)CCN4CCCC4)ccc23)cc1 was tested, and the IC50 [1] was greater than 10000 nM, the IC50 [2] was greater than 10000 nM and the IC50 [3] was greater than 10000 nM. It also gave an IC50 [4] greater than 10000 nM, an IC50 [5] greater than 10000 nM and an IC50 [6] greater than 10000 nM. For the same compound, the viability, T/C [7] was 110%, the viability, T/C [8] was 99.5% and the viability, T/C [9] was 101%. The viability, T/C [10] was 93.3%, the viability, T/C [11] was 82.5% and the viability, T/C [12] was 61%. For the same compound, the viability, T/C [13] was 106%, the viability, T/C [14] was 101% and the viability, T/C [15] was 103%. For the same compound, the viability, T/C [16] was 94.2%, the viability, T/C [17] was 80.9% and the viability, T/C [18] was 60.1%. It also gave a viability, T/C [19] of 102%, a viability, T/C [20] of 101% and a viability, T/C [21] of 99.1%. The viability, T/C [22] was 85.8%, the viability, T/C [23] was 83.6% and the viability, T/C [24] was 58.2%. The viability, T/C [25] was 98.8%, the viability, T/C [26] was 91.2% and the viability, T/C [27] was 99.3%. For the same compound, the viability, T/C [28] was 85.4%, the viability, T/C [29] was 79% and the viability, T/C [30] was 62.4%. For the same compound, the viability, T/C [31] was 85.2%, the viability, T/C [32] was 85.9% and the viability, T/C [33] was 91.5%. It also gave a viability, T/C [34] of 77.8%, a viability, T/C [35] of 69.5% and a viability, T/C [36] of 57.1%. The viability, T/C [37] was 73.5%, the viability, T/C [38] was 77.9% and the viability, T/C [39] was 70.4%. For the same compound, the viability, T/C [40] was 72.5%, the viability, T/C [41] was 63.4% and the viability, T/C [42] was 54.8%.

`Nc1ccn(C2OC(CO)C(O)C2(F)F)c(=O)n1` (stereo unspecified) + CN(C)c1ccc(Nc2c3ccc(NC(=O)CCN4CCCC4)cc3nc3cc(NC(=O)CCN4CCCC4)ccc23)cc1 gave an IC50 [1] of 366 nM, an IC50 [2] of 383 nM and an IC50 [3] of 357 nM. The IC50 [4] was 379 nM, the IC50 [5] was 497 nM and the IC50 [6] was 639 nM. It also gave a viability, T/C [7] of 99.8%, a viability, T/C [8] of 78.5% and a viability, T/C [9] of 56.7%. For the same compound, the viability, T/C [10] was 26.6%, the viability, T/C [11] was 15.5% and the viability, T/C [12] was 16.1%. For the same compound, the viability, T/C [13] was 98.8%, the viability, T/C [14] was 81.3% and the viability, T/C [15] was 58.3%. For the same compound, the viability, T/C [16] was 22.9%, the viability, T/C [17] was 15% and the viability, T/C [18] was 15.7%. The viability, T/C [19] was 98.5%, the viability, T/C [20] was 81.3% and the viability, T/C [21] was 57%. It also gave a viability, T/C [22] of 18.1%, a viability, T/C [23] of 14.6% and a viability, T/C [24] of 15.6%. It also gave a viability, T/C [25] of 97%, a viability, T/C [26] of 77.3% and a viability, T/C [27] of 60%. The viability, T/C [28] was 19.4%, the viability, T/C [29] was 16.6% and the viability, T/C [30] was 14.5%. It also gave a viability, T/C [31] of 83.2%, a viability, T/C [32] of 75.9% and a viability, T/C [33] of 65.2%. The viability, T/C [34] was 27%, the viability, T/C [35] was 18.3% and the viability, T/C [36] was 16.5%. For the same compound, the viability, T/C [37] was 73.8%, the viability, T/C [38] was 73.4% and the viability, T/C [39] was 60.7%. The viability, T/C [40] was 43.8%, the viability, T/C [41] was 24.3% and the viability, T/C [42] was 21.8%.
